The target in experiment [1] is T1, Mitogen-activated protein kinase 10 (Homo sapiens, UniProt P53779). The experiment in a line: Inhibitory activity against c-Jun N-terminal kinase 3 at a concentration of 1.0 uM.
Experiment [2] concerns the target T2, Mitogen-activated protein kinase 14 (Homo sapiens, UniProt Q16539). The experiment in a line: Inhibitory activity against p38 at a concentration of 1.0 uM.
Experiment [3] deals with T1, Mitogen-activated protein kinase 10. The experiment in a line: Inhibitory concentration against c-Jun N-terminal kinase 3 at a concentration of 1.0 uM.
Experiment [4] concerns the target T2, Mitogen-activated protein kinase 14. The experiment in a line: Inhibitory concentration against p38 at a concentration of 1.0 uM.

SMILES strings stand for the structures.

T2 sequence (Q16539 whole entry): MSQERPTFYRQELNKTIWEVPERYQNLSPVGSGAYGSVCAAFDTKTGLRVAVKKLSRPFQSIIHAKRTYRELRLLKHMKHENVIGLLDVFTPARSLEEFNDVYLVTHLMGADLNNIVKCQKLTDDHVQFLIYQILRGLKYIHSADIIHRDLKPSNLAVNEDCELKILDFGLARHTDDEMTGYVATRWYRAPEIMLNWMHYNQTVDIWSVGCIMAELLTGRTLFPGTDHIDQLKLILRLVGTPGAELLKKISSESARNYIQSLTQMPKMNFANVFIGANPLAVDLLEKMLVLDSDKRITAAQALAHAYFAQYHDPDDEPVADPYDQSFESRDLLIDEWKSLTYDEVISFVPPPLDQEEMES
T1 sequence (P53779 whole entry): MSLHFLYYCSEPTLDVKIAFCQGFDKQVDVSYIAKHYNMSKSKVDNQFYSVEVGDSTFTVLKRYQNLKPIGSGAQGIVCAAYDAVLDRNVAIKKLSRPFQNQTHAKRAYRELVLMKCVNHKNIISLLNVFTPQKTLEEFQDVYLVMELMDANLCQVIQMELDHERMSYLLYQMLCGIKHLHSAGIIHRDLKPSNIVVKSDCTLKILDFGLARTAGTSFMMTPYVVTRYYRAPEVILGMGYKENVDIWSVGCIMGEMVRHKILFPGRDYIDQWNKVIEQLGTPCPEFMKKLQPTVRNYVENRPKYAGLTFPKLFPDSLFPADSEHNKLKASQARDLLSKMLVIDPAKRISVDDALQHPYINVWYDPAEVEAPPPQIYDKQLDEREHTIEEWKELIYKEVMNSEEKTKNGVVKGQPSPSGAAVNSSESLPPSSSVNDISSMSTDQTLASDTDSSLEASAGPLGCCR

As a reminder, the IC50 is the concentration needed to halve the response being measured. A lower IC50 goes with greater potency. In the case of `CCCNc1nccc(-c2c(-c3ccc(F)cc3)nc3n2[C@@H](COCc2ccc(OC)cc2)CC3)n1`, the IC50 in experiment [1] was 233 nM; in experiment [2] it was 217 nM.
For `COc1ccc(COC[C@H]2CCc3nc(-c4ccc(F)cc4)c(-c4ccnc(N)n4)n32)cc1`, in that order: 270 nM and 116 nM.
The like results for `CCCNc1nccc(-c2c(-c3ccc(F)cc3)nc3n2[C@H](CO)CC3)n1` were, in that order, 2.5 nM and 28 nM.
In experiment [3], `O=C(NCCCn1cnc(-c2ccc(F)cc2)c1-c1ccncc1)c1ccccc1` yielded an IC50 of 130 nM.
As to `[N-]=[N+]=Nc1cccc(-c2ncn(CCCNC(=O)c3ccc(I)cc3)c2-c2ccncc2)c1`, the IC50 in experiment [4] is 46 nM.
As for `COc1ccc(COC[C@@H]2CCc3nc(-c4ccc(F)cc4)c(-c4ccnc(N)n4)n32)cc1`, the figures for the IC50 in experiment [1] and in experiment [2] were 61.2 nM and 295 nM, respectively.
The like results for `CCCNc1nccc(-c2c(-c3ccc(F)cc3)nc3n2[C@H](COCc2ccc(OC)cc2)CC3)n1` were, in that order, 10.9 nM and 54 nM.
Turning to `CCCNc1nccc(-c2c(-c3ccc(F)cc3)nc3n2[C@@H](CO)CC3)n1`, the half-maximal inhibitory concentration (IC50) in experiment [1] came out at 3 nM; in experiment [2], 31 nM.

These data come from ChEMBL document CHEMBL1143451, “The neuroprotective action of JNK3 inhibitors based on the 6,7-dihydro-5H-pyrrolo[1,2-a]imidazole scaffold” (Bioorg Med Chem Lett, 2005).
